Measurements published in PubChem BioAssay AID328 (DTP/NCI, 2004).
Several values for one entry are separate records, joined by “and”; a condition that tells them apart may be missing. Equal entries are not always repeated. Inconclusive results and toxic doses are left out.

System: BDF1 mice, P388 leukemia ip, median survival T/C
Experiment: NCI In Vivo Anticancer Drug Screen. Data for tumor model P388 Leukemia (intraperitoneal) in B6D2F1 (BDF1) mice
Details: endpoint: median survival time, higher = longer survival
In short: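 Mice carrying the transplantable tumour receive compound or vehicle. Survival is followed in each arm, and the treated measure is divided by the vehicle measure.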

`CC(C)[C@](O)(C(=O)OCC1=CC[N+]2([O-])CC[C@@H](O)[C@@H]12)[C@H](C)O` (stereo partly drawn) was tested, and the T/C (dose: 6.2 mg/kg/injection, schedule: Q01DX009 (ip), vehicle: water) was 113 % of control, the T/C (dose: 8.0 mg/kg/injection, schedule: Q03HX024 (ip), vehicle: water) was 100 % of control and the T/C (dose: 16.0 mg/kg/injection, schedule: Q03HX008 (ip), vehicle: saline) was 100 % of control. For the same compound, the T/C (dose: 16.0 mg/kg/injection, schedule: Q03HX008 (ip), vehicle: water) was 95 % of control, the T/C (dose: 16.0 mg/kg/injection, schedule: Q03HX016 (ip), vehicle: saline) was 90 % of control and the T/C (dose: 16.0 mg/kg/injection, schedule: Q03HX016 (ip), vehicle: water) was 100 % of control. The T/C (dose: 16.0 mg/kg/injection, schedule: Q03HX024 (ip), vehicle: saline) was 90 % of control, the T/C (dose: 16.0 mg/kg/injection, schedule: Q03HX024 (ip), vehicle: water) was 90 % of control and the T/C (dose: 25.0 mg/kg/injection, schedule: Q01DX009 (ip), vehicle: saline) was 110 % of control. The T/C (dose: 25.0 mg/kg/injection, schedule: Q01DX009 (ip), vehicle: water) was 118 % of control, the T/C (dose: 32.0 mg/kg/injection, schedule: Q03HX008 (ip), vehicle: saline) was 105 % of control and the T/C (dose: 32.0 mg/kg/injection, schedule: Q03HX008 (ip), vehicle: water) was 100 % of control. For the same compound, the T/C (dose: 32.0 mg/kg/injection, schedule: Q03HX016 (ip), vehicle: saline) was 100 % of control, the T/C (dose: 32.0 mg/kg/injection, schedule: Q03HX016 (ip), vehicle: water) was 100 % of control and the T/C (dose: 32.0 mg/kg/injection, schedule: Q03HX024 (ip), vehicle: saline) was 100 % of control. The T/C (dose: 32.0 mg/kg/injection, schedule: Q03HX024 (ip), vehicle: water) was 100 % of control, the T/C (dose: 64.0 mg/kg/injection, schedule: Q01DX009 (ip), vehicle: saline) was 105 % of control and the T/C (dose: 64.0 mg/kg/injection, schedule: Q03HX008 (ip), vehicle: saline) was 100 % of control. The T/C (dose: 64.0 mg/kg/injection, schedule: Q03HX008 (ip), vehicle: water) was 100 % of control, the T/C (dose: 64.0 mg/kg/injection, schedule: Q03HX016 (ip), vehicle: saline) was 105 % of control and the T/C (dose: 64.0 mg/kg/injection, schedule: Q03HX016 (ip), vehicle: water) was 100 % of control. For the same compound, the T/C (dose: 64.0 mg/kg/injection, schedule: Q03HX024 (ip), vehicle: saline) was 105 % of control, the T/C (dose: 64.0 mg/kg/injection, schedule: Q03HX024 (ip), vehicle: water) was 95 % of control and the T/C (dose: 64.0 mg/kg/injection, schedule: Q04DX003 (ip), vehicle: water) was 100 % of control. For the same compound, the T/C (dose: 100.0 mg/kg/injection, schedule: Q04DX002 (ip), vehicle: saline) was 108 % of control, the T/C (dose: 128.0 mg/kg/injection, schedule: Q01DX001 (ip), vehicle: saline) was 95 % of control and the T/C (dose: 128.0 mg/kg/injection, schedule: Q01DX009 (ip), vehicle: saline) was 89 % of control. The T/C (dose: 128.0 mg/kg/injection, schedule: Q01DX009 (sc), vehicle: water) was 95 % of control, the T/C (dose: 128.0 mg/kg/injection, schedule: Q03HX008 (ip), vehicle: saline) was 95 % of control and the T/C (dose: 128.0 mg/kg/injection, schedule: Q03HX016 (ip), vehicle: saline) was 100 % of control. The T/C (dose: 128.0 mg/kg/injection, schedule: Q03HX016 (ip), vehicle: water) was 100 % of control, the T/C (dose: 128.0 mg/kg/injection, schedule: Q03HX024 (ip), vehicle: saline) was 105 % of control and the T/C (dose: 128.0 mg/kg/injection, schedule: Q03HX024 (ip), vehicle: water) was 100 % of control. The T/C (dose: 128.0 mg/kg/injection, schedule: Q04DX003 (ip), vehicle: saline) was 95 % of control, the T/C (dose: 128.0 mg/kg/injection, schedule: Q04DX003 (ip), vehicle: water) was 100 % of control and the T/C (dose: 128.0 mg/kg/injection, schedule: Q08DX002 (ip), vehicle: saline) was 90 % of control. For the same compound, the T/C (dose: 200.0 mg/kg/injection, schedule: Q01DX001 (ip), vehicle: saline) was 95 % of control, the T/C (dose: 200.0 mg/kg/injection, schedule: Q01DX009 (ip), vehicle: other) was 157 % of control and the T/C (dose: 200.0 mg/kg/injection, schedule: Q04DX002 (ip), vehicle: saline) was 100 % of control. The T/C (dose: 250.0 mg/kg/injection, schedule: Q04DX003 (ip), vehicle: water) was 154 % of control, the T/C (dose: 256.0 mg/kg/injection, schedule: Q01DX001 (ip), vehicle: saline) was 90 % of control and the T/C (dose: 256.0 mg/kg/injection, schedule: Q01DX001 (ip), vehicle: water) was 118 % of control. For the same compound, the T/C (dose: 256.0 mg/kg/injection, schedule: Q01DX009 (ip), vehicle: saline) was 96 % of control, the T/C (dose: 256.0 mg/kg/injection, schedule: Q01DX009 (ip), vehicle: water) was 154 % of control and the T/C (dose: 256.0 mg/kg/injection, schedule: Q01DX009 (oral), vehicle: water) was 90 % of control. For the same compound, the T/C (dose: 256.0 mg/kg/injection, schedule: Q01DX009 (sc), vehicle: water) was 100 % of control, the T/C (dose: 256.0 mg/kg/injection, schedule: Q03HX008 (ip), vehicle: saline) was 120 % of control and the T/C (dose: 256.0 mg/kg/injection, schedule: Q03HX016 (ip), vehicle: saline) was 105 % of control. For the same compound, the T/C (dose: 256.0 mg/kg/injection, schedule: Q03HX024 (ip), vehicle: saline) was 95 % of control, the T/C (dose: 256.0 mg/kg/injection, schedule: Q04DX003 (ip), vehicle: saline) was 100 % of control and the T/C (dose: 256.0 mg/kg/injection, schedule: Q04DX003 (ip), vehicle: water) was 104 % of control. The T/C (dose: 288.0 mg/kg/injection, schedule: Q01DX009 (ip), vehicle: water) was 159 % of control, the T/C (dose: 360.0 mg/kg/injection, schedule: Q01DX009 (ip), vehicle: water) was 175 % of control and the T/C (dose: 400.0 mg/kg/injection, schedule: Q01DX009 (ip), vehicle: other) was 105 % of control. For the same compound, the T/C (dose: 500.0 mg/kg/injection, schedule: Q01DX001 (ip), vehicle: water) was 154 % of control, the T/C (dose: 500.0 mg/kg/injection, schedule: Q04DX003 (ip), vehicle: water) was 172 % of control and the T/C (dose: 500.0 mg/kg/injection, schedule: Q08DX002 (ip), vehicle: water) was 163 % of control. For the same compound, the T/C (dose: 512.0 mg/kg/injection, schedule: Q01DX001 (ip), vehicle: saline) was 100 % of control, the T/C (dose: 512.0 mg/kg/injection, schedule: Q01DX001 (ip), vehicle: water) was 118 % of control and the T/C (dose: 512.0 mg/kg/injection, schedule: Q01DX009 (ip), vehicle: saline) was 100 % of control. For the same compound, the T/C (dose: 512.0 mg/kg/injection, schedule: Q01DX009 (ip), vehicle: water) was 172 % of control, the T/C (dose: 512.0 mg/kg/injection, schedule: Q01DX009 (oral), vehicle: water) was 95 % of control and the T/C (dose: 512.0 mg/kg/injection, schedule: Q01DX009 (sc), vehicle: water) was 90 % of control. For the same compound, the T/C (dose: 512.0 mg/kg/injection, schedule: Q04DX003 (ip), vehicle: saline) was 90 % of control, the T/C (dose: 512.0 mg/kg/injection, schedule: Q04DX003 (ip), vehicle: water) was 100 % of control and the T/C (dose: 600.0 mg/kg/injection, schedule: Q01DX009 (ip), vehicle: water) was 163 % of control and 169 % of control. For the same compound, the T/C (dose: 750.0 mg/kg/injection, schedule: Q01DX005 (ip), vehicle: water) was 100 % of control, the T/C (dose: 800.0 mg/kg/injection, schedule: Q01DX001 (ip), vehicle: saline) was 108 % of control and the T/C (dose: 800.0 mg/kg/injection, schedule: Q01DX009 (ip), vehicle: other) was 99 % of control. The T/C (dose: 1000.0 mg/kg/injection, schedule: Q01DX001 (ip), vehicle: water) was 154 % of control, the T/C (dose: 1000.0 mg/kg/injection, schedule: Q04DX003 (ip), vehicle: water) was 195 % of control and the T/C (dose: 1000.0 mg/kg/injection, schedule: Q08DX002 (ip), vehicle: water) was 177 % of control. For the same compound, the T/C (dose: 1024.0 mg/kg/injection, schedule: Q01DX001 (ip), vehicle: saline) was 100 % of control, the T/C (dose: 1024.0 mg/kg/injection, schedule: Q01DX001 (ip), vehicle: water) was 95 % of control and the T/C (dose: 1024.0 mg/kg/injection, schedule: Q01DX009 (ip), vehicle: saline) was 160 % of control. The T/C (dose: 1024.0 mg/kg/injection, schedule: Q01DX009 (oral), vehicle: water) was 90 % of control, the T/C (dose: 1024.0 mg/kg/injection, schedule: Q01DX009 (sc), vehicle: water) was 90 % of control and the T/C (dose: 1024.0 mg/kg/injection, schedule: Q04DX003 (ip), vehicle: saline) was 110 % of control. The T/C (dose: 1024.0 mg/kg/injection, schedule: Q04DX003 (ip), vehicle: water) was 100 % of control, the T/C (dose: 1024.0 mg/kg/injection, schedule: Q08DX002 (ip), vehicle: saline) was 100 % of control and the T/C (dose: 1024.0 mg/kg/injection, schedule: Q08DX002 (ip), vehicle: water) was 95 % of control. The T/C (dose: 1500.0 mg/kg/injection, schedule: Q01DX001 (ip), vehicle: water) was 163 % of control, the T/C (dose: 1500.0 mg/kg/injection, schedule: Q08DX002 (ip), vehicle: water) was 181 % of control and the T/C (dose: 2048.0 mg/kg/injection, schedule: Q01DX001 (ip), vehicle: saline) was 120 % of control. For the same compound, the T/C (dose: 2048.0 mg/kg/injection, schedule: Q01DX001 (ip), vehicle: water) was 113 % of control, the T/C (dose: 2048.0 mg/kg/injection, schedule: Q01DX009 (oral), vehicle: water) was 90 % of control and the T/C (dose: 2048.0 mg/kg/injection, schedule: Q08DX002 (ip), vehicle: saline) was 105 % of control. The T/C (dose: 2048.0 mg/kg/injection, schedule: Q08DX002 (ip), vehicle: water) was 118 % of control.
